Results as given in ChEMBL document CHEMBL4507280 (2021).

Key:
[1] = test system: Tyrosine-protein kinase ABL1 (Homo sapiens), P00519 [F317L]; details: Compound concentration 1000.0 nM
[2] = target: Tyrosine-protein kinase ABL1 (Homo sapiens) (UniProt P00519); details: Compound concentration 1000.0 nM
[3] = target: Activin receptor type-2B (Homo sapiens) (UniProt Q13705); details: Compound concentration 1000.0 nM
[4] = target: NUAK family SNF1-like kinase 1 (Homo sapiens) (UniProt O60285); details: Compound concentration 1000.0 nM
[5] = target: Calcium/calmodulin-dependent protein kinase kinase 2 (Homo sapiens) (UniProt Q96RR4); details: Compound concentration 1000.0 nM
[6] = target: Cyclin-dependent kinase 4 (Homo sapiens) (UniProt P11802); details: Compound concentration 1000.0 nM
[7] = target: Cyclin-dependent kinase 5 (Homo sapiens) (UniProt Q00535); details: Compound concentration 1000.0 nM
[8] = target: Cyclin-dependent kinase-like 3 (Homo sapiens) (UniProt Q8IVW4); details: Compound concentration 1000.0 nM
[9] = target: Citron Rho-interacting kinase (Homo sapiens) (UniProt O14578); details: Compound concentration 1000.0 nM
[10] = target: Casein kinase II subunit alpha (Homo sapiens) (UniProt P68400); details: Compound concentration 1000.0 nM
[11] = target: Death-associated protein kinase 1 (Homo sapiens) (UniProt P53355); details: Compound concentration 1000.0 nM
[12] = target: Ephrin type-B receptor 1 (Homo sapiens) (UniProt P54762); details: Compound concentration 1000.0 nM
[13] = target: Tyrosine-protein kinase Fes/Fps (Homo sapiens) (UniProt P07332); details: Compound concentration 1000.0 nM
[14] = target: Receptor-type tyrosine-protein kinase FLT3 (Homo sapiens) (UniProt P36888); details: Compound concentration 1000.0 nM
[15] = target: Receptor-type tyrosine-protein kinase FLT3 (Homo sapiens) (UniProt P36888); details: Compound concentration 1000.0 nM; remark: listed apart in the source
[16] = target: Homeodomain-interacting protein kinase 2 (Homo sapiens) (UniProt Q9H2X6); details: Compound concentration 1000.0 nM
[17] = target: Homeodomain-interacting protein kinase 3 (Homo sapiens) (UniProt Q9H422); details: Compound concentration 1000.0 nM
[18] = target: Serine/threonine-protein kinase ICK (Homo sapiens) (UniProt Q9UPZ9); details: Compound concentration 1000.0 nM
[19] = test system: Mast/stem cell growth factor receptor Kit (Homo sapiens), P10721 [V559D,T670I]; details: Compound concentration 1000.0 nM
[20] = target: LIM domain kinase 2 (Homo sapiens) (UniProt P53671); details: Compound concentration 1000.0 nM
[21] = target: Serine/threonine-protein kinase STK11 (Homo sapiens) (UniProt Q15831); details: Compound concentration 1000.0 nM
[22] = target: Serine/threonine-protein kinase 10 (Homo sapiens) (UniProt O94804); details: Compound concentration 1000.0 nM
[23] = target: Mitogen-activated protein kinase kinase kinase 1 (Homo sapiens) (UniProt Q13233); details: Compound concentration 1000.0 nM
[24] = target: Mitogen-activated protein kinase kinase kinase 3 (Homo sapiens) (UniProt Q99759); details: Compound concentration 1000.0 nM
[25] = target: Misshapen-like kinase 1 (Homo sapiens) (UniProt Q8N4C8); details: Compound concentration 1000.0 nM
[26] = target: Myosin light chain kinase family member 4 (Homo sapiens) (UniProt Q86YV6); details: Compound concentration 1000.0 nM
[27] = target: Serine/threonine-protein kinase Nek4 (Homo sapiens) (UniProt P51957); details: Compound concentration 1000.0 nM
[28] = target: Serine/threonine-protein kinase NLK (Homo sapiens) (UniProt Q9UBE8); details: Compound concentration 1000.0 nM
[29] = target: Serine/threonine-protein kinase OSR1 (Homo sapiens) (UniProt O95747); details: Compound concentration 1000.0 nM
[30] = target: Cyclin-dependent kinase 18 (Homo sapiens) (UniProt Q07002); details: Compound concentration 1000.0 nM
[31] = target: cAMP-dependent protein kinase catalytic subunit alpha (Homo sapiens) (UniProt P17612); details: Compound concentration 1000.0 nM
[32] = target: Serine/threonine-protein kinase PLK1 (Homo sapiens) (UniProt P53350); details: Compound concentration 1000.0 nM
[33] = target: Serine/threonine-protein kinase D2 (Homo sapiens) (UniProt Q9BZL6); details: Compound concentration 1000.0 nM
[34] = test system: Proto-oncogene tyrosine-protein kinase receptor Ret (Homo sapiens), P07949 [V804L]; details: Compound concentration 1000.0 nM
[35] = target: Receptor-interacting serine/threonine-protein kinase 1 (Homo sapiens) (UniProt Q13546); details: Compound concentration 1000.0 nM
[36] = target: Rho-associated protein kinase 2 (Homo sapiens) (UniProt O75116); details: Compound concentration 1000.0 nM
[37] = target: Ribosomal protein S6 kinase alpha-4 (Homo sapiens) (UniProt O75676); details: Compound concentration 1000.0 nM
[38] = target: Ribosomal protein S6 kinase alpha-3 (Homo sapiens) (UniProt P51812); details: Compound concentration 1000.0 nM
[39] = target: SRSF protein kinase 3 (Homo sapiens) (UniProt Q9UPE1); details: Compound concentration 1000.0 nM
[40] = target: Angiopoietin-1 receptor (Homo sapiens) (UniProt Q02763); details: Compound concentration 1000.0 nM
[41] = target: Serine/threonine-protein kinase tousled-like 2 (Homo sapiens) (UniProt Q86UE8); details: Compound concentration 1000.0 nM
[42] = target: Testis-specific serine/threonine-protein kinase 3 (Homo sapiens) (UniProt Q96PN8); details: Compound concentration 1000.0 nM
[43] = target: Serine/threonine-protein kinase 32A (Homo sapiens) (UniProt Q8WU08); details: Compound concentration 1000.0 nM
[44] = target: Serine/threonine-protein kinase 32B (Homo sapiens) (UniProt Q9NY57); details: Compound concentration 1000.0 nM
Rattus norvegicus = species: Rattus norvegicus; details: Compound concentration 10.0 uM
[45] = target: Sigma non-opioid intracellular receptor 1 (Homo sapiens) (UniProt Q99720); details: Compound concentration 10.0 uM
Sequence of Sigma non-opioid intracellular receptor 1 (Homo sapiens) (Q99720 whole entry): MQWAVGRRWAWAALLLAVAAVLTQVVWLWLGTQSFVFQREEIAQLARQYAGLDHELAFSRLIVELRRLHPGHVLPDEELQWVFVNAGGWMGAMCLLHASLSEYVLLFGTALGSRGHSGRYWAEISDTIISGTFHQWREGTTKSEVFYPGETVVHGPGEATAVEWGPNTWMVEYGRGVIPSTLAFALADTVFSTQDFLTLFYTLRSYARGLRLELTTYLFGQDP

Sequence of Receptor-type tyrosine-protein kinase FLT3 (Homo sapiens) (P36888 whole entry): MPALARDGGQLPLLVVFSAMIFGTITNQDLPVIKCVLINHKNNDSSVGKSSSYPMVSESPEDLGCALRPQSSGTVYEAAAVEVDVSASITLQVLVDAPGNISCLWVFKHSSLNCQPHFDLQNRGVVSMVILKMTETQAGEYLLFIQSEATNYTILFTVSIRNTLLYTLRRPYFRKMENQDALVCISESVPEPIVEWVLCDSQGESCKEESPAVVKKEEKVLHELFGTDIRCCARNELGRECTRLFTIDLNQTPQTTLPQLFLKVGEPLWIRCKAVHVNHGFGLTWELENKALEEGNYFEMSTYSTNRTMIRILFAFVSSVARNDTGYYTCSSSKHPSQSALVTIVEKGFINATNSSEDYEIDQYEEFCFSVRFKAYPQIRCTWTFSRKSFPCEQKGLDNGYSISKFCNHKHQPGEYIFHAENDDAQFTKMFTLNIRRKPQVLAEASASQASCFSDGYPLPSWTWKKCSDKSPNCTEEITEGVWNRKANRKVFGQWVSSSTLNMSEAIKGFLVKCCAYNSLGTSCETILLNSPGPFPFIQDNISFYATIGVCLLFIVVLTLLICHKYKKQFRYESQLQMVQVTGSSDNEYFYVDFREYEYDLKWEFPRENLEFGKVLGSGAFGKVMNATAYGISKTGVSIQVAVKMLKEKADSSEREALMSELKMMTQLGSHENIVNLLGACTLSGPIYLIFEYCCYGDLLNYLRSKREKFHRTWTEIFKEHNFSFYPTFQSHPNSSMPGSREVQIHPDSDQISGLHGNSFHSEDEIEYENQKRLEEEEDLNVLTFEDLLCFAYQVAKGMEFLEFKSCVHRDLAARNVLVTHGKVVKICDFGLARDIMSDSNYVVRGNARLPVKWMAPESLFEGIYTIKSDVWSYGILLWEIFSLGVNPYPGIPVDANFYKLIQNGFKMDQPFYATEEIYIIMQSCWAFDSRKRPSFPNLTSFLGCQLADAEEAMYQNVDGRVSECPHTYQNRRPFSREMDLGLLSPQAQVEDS
Sequence of Tyrosine-protein kinase ABL1 (Homo sapiens) (P00519 whole entry): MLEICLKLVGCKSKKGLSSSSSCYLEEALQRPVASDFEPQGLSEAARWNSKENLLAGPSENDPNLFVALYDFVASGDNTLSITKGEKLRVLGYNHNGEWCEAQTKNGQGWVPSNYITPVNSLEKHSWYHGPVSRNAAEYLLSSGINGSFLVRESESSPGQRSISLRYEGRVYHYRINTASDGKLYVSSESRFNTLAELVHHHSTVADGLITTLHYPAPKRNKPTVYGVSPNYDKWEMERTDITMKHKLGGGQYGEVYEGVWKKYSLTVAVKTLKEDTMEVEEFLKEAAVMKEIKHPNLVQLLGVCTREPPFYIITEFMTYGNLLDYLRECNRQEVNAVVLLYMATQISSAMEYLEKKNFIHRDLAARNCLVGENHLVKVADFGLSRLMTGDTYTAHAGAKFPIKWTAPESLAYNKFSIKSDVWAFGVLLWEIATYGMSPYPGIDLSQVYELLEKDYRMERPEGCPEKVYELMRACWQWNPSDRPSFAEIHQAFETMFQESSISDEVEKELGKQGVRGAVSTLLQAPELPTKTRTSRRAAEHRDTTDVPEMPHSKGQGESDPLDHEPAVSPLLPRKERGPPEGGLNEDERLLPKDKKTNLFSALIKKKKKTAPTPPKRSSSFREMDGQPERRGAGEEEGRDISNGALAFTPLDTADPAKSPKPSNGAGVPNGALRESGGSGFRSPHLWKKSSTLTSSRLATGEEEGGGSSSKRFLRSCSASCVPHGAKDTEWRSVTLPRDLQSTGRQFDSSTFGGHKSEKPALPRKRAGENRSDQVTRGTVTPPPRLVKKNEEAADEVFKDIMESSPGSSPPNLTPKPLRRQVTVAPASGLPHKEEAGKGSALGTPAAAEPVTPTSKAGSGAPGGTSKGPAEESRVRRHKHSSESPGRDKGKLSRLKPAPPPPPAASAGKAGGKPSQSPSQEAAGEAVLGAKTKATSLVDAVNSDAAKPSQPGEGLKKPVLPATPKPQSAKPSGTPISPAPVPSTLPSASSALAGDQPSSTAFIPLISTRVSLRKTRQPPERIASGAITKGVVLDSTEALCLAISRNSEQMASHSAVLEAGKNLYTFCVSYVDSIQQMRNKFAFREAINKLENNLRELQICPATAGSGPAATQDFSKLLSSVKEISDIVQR
Sequence of Serine/threonine-protein kinase 10 (Homo sapiens) (O94804 whole entry, looked up): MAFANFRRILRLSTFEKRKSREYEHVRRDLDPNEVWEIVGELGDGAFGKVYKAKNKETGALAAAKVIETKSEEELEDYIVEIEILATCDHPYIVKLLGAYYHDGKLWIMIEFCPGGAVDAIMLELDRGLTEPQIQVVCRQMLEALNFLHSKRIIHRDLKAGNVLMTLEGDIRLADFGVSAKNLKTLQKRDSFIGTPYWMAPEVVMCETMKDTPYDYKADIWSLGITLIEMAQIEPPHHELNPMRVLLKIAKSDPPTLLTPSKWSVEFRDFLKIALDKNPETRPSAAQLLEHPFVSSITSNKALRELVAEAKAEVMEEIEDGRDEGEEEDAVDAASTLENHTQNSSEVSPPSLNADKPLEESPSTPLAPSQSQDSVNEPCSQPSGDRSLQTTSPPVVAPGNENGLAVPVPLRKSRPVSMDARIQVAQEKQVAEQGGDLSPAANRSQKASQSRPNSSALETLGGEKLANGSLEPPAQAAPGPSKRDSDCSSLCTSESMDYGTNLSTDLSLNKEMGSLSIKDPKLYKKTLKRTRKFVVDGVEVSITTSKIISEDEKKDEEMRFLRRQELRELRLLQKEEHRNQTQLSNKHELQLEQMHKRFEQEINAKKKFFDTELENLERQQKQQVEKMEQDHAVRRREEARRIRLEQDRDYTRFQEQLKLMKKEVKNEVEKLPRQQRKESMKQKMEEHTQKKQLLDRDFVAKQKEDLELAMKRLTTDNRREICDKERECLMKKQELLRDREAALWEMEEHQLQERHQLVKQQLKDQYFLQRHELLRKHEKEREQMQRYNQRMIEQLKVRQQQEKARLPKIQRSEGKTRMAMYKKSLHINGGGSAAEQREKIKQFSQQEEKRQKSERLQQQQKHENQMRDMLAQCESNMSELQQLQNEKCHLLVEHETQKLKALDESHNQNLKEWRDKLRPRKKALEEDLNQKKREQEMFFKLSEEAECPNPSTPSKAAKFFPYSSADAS
Sequence of Misshapen-like kinase 1 (Homo sapiens) (Q8N4C8 whole entry, looked up): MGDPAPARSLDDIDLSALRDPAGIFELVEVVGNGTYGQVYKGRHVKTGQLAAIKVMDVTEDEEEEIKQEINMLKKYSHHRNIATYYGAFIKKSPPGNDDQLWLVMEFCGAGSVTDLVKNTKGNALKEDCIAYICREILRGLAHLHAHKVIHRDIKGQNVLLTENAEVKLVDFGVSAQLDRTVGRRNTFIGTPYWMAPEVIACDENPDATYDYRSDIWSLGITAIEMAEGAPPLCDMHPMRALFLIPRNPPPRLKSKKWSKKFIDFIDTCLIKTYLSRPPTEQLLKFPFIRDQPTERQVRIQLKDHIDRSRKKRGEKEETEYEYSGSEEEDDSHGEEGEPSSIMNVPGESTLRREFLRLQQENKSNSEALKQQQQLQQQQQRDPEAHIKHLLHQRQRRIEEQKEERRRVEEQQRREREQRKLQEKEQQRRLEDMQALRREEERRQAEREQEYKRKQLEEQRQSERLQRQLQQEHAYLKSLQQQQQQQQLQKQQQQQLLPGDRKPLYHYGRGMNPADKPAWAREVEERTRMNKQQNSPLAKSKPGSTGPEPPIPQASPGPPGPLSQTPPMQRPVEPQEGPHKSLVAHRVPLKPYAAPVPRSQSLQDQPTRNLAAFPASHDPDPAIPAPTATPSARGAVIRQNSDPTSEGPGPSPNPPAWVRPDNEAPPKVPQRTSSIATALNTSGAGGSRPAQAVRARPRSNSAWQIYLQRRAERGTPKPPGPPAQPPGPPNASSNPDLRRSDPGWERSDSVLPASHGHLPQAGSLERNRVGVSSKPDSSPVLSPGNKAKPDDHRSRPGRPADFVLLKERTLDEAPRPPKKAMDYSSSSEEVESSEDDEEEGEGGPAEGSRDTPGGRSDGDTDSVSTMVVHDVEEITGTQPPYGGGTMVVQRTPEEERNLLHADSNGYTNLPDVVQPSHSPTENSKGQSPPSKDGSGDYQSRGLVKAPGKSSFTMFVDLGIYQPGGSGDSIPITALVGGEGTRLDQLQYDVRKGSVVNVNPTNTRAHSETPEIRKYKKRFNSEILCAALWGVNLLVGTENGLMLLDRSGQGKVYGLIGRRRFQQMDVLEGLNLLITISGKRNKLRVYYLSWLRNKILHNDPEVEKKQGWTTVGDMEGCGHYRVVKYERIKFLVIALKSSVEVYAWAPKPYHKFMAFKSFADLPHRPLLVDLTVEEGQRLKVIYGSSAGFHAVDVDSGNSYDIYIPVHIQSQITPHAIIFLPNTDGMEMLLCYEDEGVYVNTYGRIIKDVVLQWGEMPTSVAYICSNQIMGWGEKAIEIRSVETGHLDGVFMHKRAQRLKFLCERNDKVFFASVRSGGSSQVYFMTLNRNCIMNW
Sequence of Casein kinase II subunit alpha (Homo sapiens) (P68400 whole entry, looked up): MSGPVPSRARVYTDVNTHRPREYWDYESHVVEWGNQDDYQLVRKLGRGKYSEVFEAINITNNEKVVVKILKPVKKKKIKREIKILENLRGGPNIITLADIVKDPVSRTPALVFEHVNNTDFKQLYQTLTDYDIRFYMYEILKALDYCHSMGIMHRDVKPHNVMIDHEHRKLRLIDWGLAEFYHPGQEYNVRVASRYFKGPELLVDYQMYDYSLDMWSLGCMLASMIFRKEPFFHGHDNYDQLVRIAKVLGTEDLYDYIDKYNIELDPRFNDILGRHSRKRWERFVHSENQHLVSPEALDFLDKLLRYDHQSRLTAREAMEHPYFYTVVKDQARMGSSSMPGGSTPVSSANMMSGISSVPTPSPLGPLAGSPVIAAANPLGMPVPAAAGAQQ
Sequence of Tyrosine-protein kinase ABL1 (Homo sapiens), P00519 [F317L] (P00519 whole entry F317L): as the sequence (P00519 whole entry) above, with F317L counted along it

CCC(=O)N[C@H]1CC[C@@H](C(=O)N(C)c2ccc(-c3nc4ccccc4o3)cc2)C1 [BI 99179]
inactive: residual activity [1] 86% | residual activity [2] 85% | residual activity [3] 100% | residual activity [4] 100% | residual activity [5] 91% | residual activity [6] 88% | residual activity [7] 87% | residual activity [8] 100% | residual activity [9] 99% | residual activity [10] 74% | residual activity [11] 96% | residual activity [12] 100% | residual activity [13] 73% | residual activity [14] 78% | residual activity [15] 85% | residual activity [16] 79% | residual activity [17] 74% | residual activity [18] 70% | residual activity [19] 100% | residual activity [20] 100% | residual activity [21] 100% | residual activity [22] 100% | residual activity [23] 73% | residual activity [24] 89% | residual activity [25] 89% | residual activity [26] 100% | residual activity [27] 99% | residual activity [28] 87% | residual activity [29] 83% | residual activity [30] 100% | residual activity [31] 100% | residual activity [32] 97% | residual activity [33] 100% | residual activity [34] 98% | residual activity [35] 100% | residual activity [36] 100% | residual activity [37] 79% | residual activity [38] 88% | residual activity [39] 100% | residual activity [40] 85% | residual activity [41] 100% | residual activity [42] 100% | residual activity [43] 98% | residual activity [44] 98% | inhibition (Rattus norvegicus) 3.17% | inhibition [45] 9.78%

CCC(=O)N[C@@H]1CC[C@H](C(=O)N(C)c2ccc(-c3nc4ccccc4o3)cc2)C1 [BI 99990]
inactive: residual activity [1] 92% | residual activity [2] 76% | residual activity [3] 96% | residual activity [4] 100% | residual activity [5] 100% | residual activity [6] 100% | residual activity [7] 100% | residual activity [8] 79% | residual activity [9] 93% | residual activity [10] 98% | residual activity [11] 100% | residual activity [12] 100% | residual activity [13] 96% | residual activity [14] 89% | residual activity [15] 84% | residual activity [16] 100% | residual activity [17] 76% | residual activity [18] 92% | residual activity [19] 93% | residual activity [20] 100% | residual activity [21] 51% | residual activity [22] 89% | residual activity [23] 74% | residual activity [24] 96% | residual activity [25] 96% | residual activity [26] 100% | residual activity [27] 95% | residual activity [28] 100% | residual activity [29] 100% | residual activity [30] 95% | residual activity [31] 100% | residual activity [32] 95% | residual activity [33] 100% | residual activity [34] 100% | residual activity [35] 100% | residual activity [36] 100% | residual activity [37] 100% | residual activity [38] 91% | residual activity [39] 100% | residual activity [40] 82% | residual activity [41] 100% | residual activity [42] 97% | residual activity [43] 100% | residual activity [44] 71% | inhibition (Rattus norvegicus) 5.21% | inhibition [45] 38.3%
